# What was measured:
# Format in all cases: in vivo
# [1] = tested on: morningglory (Ipomoea spp.); assay: Test A pre-/postemergence plant response
# Method in brief: (§1)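 Each species was treated preemergence via directed soil spray and postemergence at the one- to two-leaf stage, with compounds formulated in a non-phytotoxic solvent plus surfactant. Visual injury relative to untreated controls was rated after about ten days on a 0–100 scale.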
# [2] = tested on: pigweed (Amaranthus retroflexus); assay: Test A pre-/postemergence plant response
# Method in brief: as §1
# [3] = tested on: giant foxtail (Setaria faberii); assay: Test B pre-/postemergence plant response
# Method in brief: (§2)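 Response scores were assigned visually after 13 to 15 days in a greenhouse, comparing treated pots with controls on a 0–100 scale where 100 denotes complete control. Preemergence treatments went onto freshly seeded loam/sand soil; postemergence treatments onto plants 2 to 18 cm tall.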
# [4] = tested on: goosegrass (Eleusine indica); assay: Test B pre-/postemergence plant response
# Method in brief: as §2
# [5] = tested on: johnsongrass (Sorghum halepense); assay: Test B pre-/postemergence plant response
# Method in brief: as §2
# [6] = tested on: morningglory (Ipomoea coccinea); assay: Test B pre-/postemergence plant response
# Method in brief: as §2
# [7] = tested on: wheat (Triticum aestivum); assay: Test B pre-/postemergence plant response
# Method in brief: as §2
# [8] = tested on: woolly cupgrass (Eriochloa villosa); assay: Test B pre-/postemergence plant response
# Method in brief: as §2
# [9] = tested on: barnyardgrass (Echinochloa crus-galli); assay: Test B flooded paddy test; details: for Plant response rating, Barnyardgrass: Flood (flooded paddy test), 13 to 15 days
# Method in brief: (§3)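 Visual scores run from 0 (no effect) to 100 (complete control), assigned by comparison with controls 13 to 15 days after treatment. Test compounds went straight into water standing 3 cm above the soil, around plants at the 2-leaf stage kept in a greenhouse.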
# [10] = tested on: ducksalad (Heteranthera limosa); assay: Test B flooded paddy test; details: for Plant response rating, Ducksalad: Flood (flooded paddy test), 13 to 15 days
# Method in brief: as §3
# [11] = tested on: rice (Oryza sativa); assay: Test B flooded paddy test; details: for Plant response rating, Rice: Flood (flooded paddy test), 13 to 15 days
# Method in brief: as §3
# [12] = tested on: umbrella sedge (Cyperus difformis); assay: Test B flooded paddy test; details: for Plant response rating, Sedge, Umbrella: Flood (flooded paddy test), 13 to 15 days
# Method in brief: as §3
# [13] = Postemergence, 125 g ai/ha, visual injury, 0 to 100 scale (0 no effect, 100 complete control), approx. ten days
# [14] = Postemergence, 500 g ai/ha, 0 to 100 scale, 0 = no effect, 100 = complete control, approx. ten days
# [15] = Preemergence, 125 g ai/ha, 0 to 100 scale, 0 = no effect, 100 = complete control
# [16] = Preemergence, 500 g ai/ha, visual injury, 0 to 100 scale (0 no effect, 100 complete control), approx. ten days
# [17] = 250 g ai/ha, Preemergence, 0 to 100 scale
# [18] = Postemergence, 31 g ai/ha, scale 0 to 100 (0 no effect, 100 complete control)
# [19] = Postemergence, 62 g ai/ha, scale 0 (no effect) to 100 (complete control), 13 to 15 days
# [20] = Postemergence, 125 g ai/ha, visual rating after 13 to 15 days, scale 0 (no effect) to 100 (complete control)
# [21] = Postemergence, 250 g ai/ha, scale 0 to 100
# [22] = Preemergence, 31 g ai/ha, scale 0 to 100 (0 no effect, 100 complete control)
# [23] = Preemergence, 62 g ai/ha, scale 0 to 100, 0 no effect, 100 complete control
# [24] = Preemergence, 125 g ai/ha, 0 to 100 scale
# [25] = 250 g ai/ha, flooded paddy test, visual rating on 0 to 100 scale (0 no effect, 100 complete control) after 13 to 15 days
# [26] = 31 g ai/ha, scale of 0 to 100 where 0 is no effect and 100 is complete control
# [27] = 62 g ai/ha, scale 0 to 100, 0 is no effect, 100 is complete control
# [28] = 125 g ai/ha, scale 0 to 100, 0 is no effect, 100 is complete control
structure (smiles),measurement,setting,value
O=C1CCCC([O-])=C1C(=O)c1cnc(-c2ccccc2)n(-c2ccccc2)c1=O.[K+] [Compound 14],Morningglory plant response rating,[1]; [13],20
same,"Plant response rating, Morningglory",[1]; [14],100
same,"Plant response rating, Morningglory",[1]; [15],10
same,"Plant response rating, Morningglory",[1]; [16],60
same,Pigweed plant response rating,[2]; [13],80
same,"Plant response rating, Pigweed",[2]; [14],100
same,"Plant response rating, Pigweed",[2]; [15],100
same,"Plant response rating, Pigweed",[2]; [16],100
same,"Plant response rating, Foxtail, Giant",[3]; [17],90
same,"Plant response rating, Foxtail, Giant",[3]; [18],50
same,"Plant response rating, Foxtail, Giant",[3]; [19],70
same,"Plant response rating, Foxtail, Giant",[3]; [20],80
same,"Foxtail, Giant plant response rating",[3]; [21],95
same,"Plant response rating, Foxtail, Giant",[3]; [22],0
same,"Plant response rating, Foxtail, Giant",[3]; [23],10
same,"Foxtail, Giant plant response rating",[3]; [24],75
same,"Plant response rating, Goosegrass",[4]; [17],100
same,"Plant response rating, Goosegrass",[4]; [18],80
same,"Plant response rating, Goosegrass",[4]; [19],80
same,"Plant response rating, Goosegrass",[4]; [20],80
same,Goosegrass plant response rating,[4]; [21],85
same,"Plant response rating, Goosegrass",[4]; [22],70
same,Goosegrass plant response rating,[4]; [24],98
same,"Plant response rating, Johnsongrass",[5]; [17],95
same,"Plant response rating, Johnsongrass",[5]; [18],45
same,"Plant response rating, Johnsongrass",[5]; [19],80
same,"Plant response rating, Johnsongrass",[5]; [20],80
same,Johnsongrass plant response rating,[5]; [21],80
same,"Plant response rating, Johnsongrass",[5]; [22],5
same,"Plant response rating, Johnsongrass",[5]; [23],30
same,Johnsongrass plant response rating,[5]; [24],80
same,"Plant response rating, Morningglory",[6]; [17],100
same,"Plant response rating, Morningglory",[6]; [18],70
same,"Plant response rating, Morningglory",[6]; [19],70
same,"Plant response rating, Morningglory",[6]; [20],80
same,Morningglory plant response rating,[6]; [21],95
same,"Plant response rating, Morningglory",[6]; [22],100
same,"Plant response rating, Morningglory",[6]; [23],100
same,Morningglory plant response rating,[6]; [24],100
same,"Plant response rating, Wheat",[7]; [17],0
same,"Plant response rating, Wheat",[7]; [18],0
same,"Plant response rating, Wheat",[7]; [19],0
same,"Plant response rating, Wheat",[7]; [20],0
same,Wheat plant response rating,[7]; [21],20
same,"Plant response rating, Wheat",[7]; [22],0
same,"Plant response rating, Wheat",[7]; [23],0
same,Wheat plant response rating,[7]; [24],0
same,"Plant response rating, Cupgrass, Woolly",[8]; [17],70
same,"Plant response rating, Cupgrass, Woolly",[8]; [18],50
same,"Plant response rating, Cupgrass, Woolly",[8]; [19],80
same,"Plant response rating, Cupgrass, Woolly",[8]; [20],80
same,"Cupgrass, Woolly plant response rating",[8]; [21],80
same,"Plant response rating, Cupgrass, Woolly",[8]; [22],0
same,"Plant response rating, Cupgrass, Woolly",[8]; [23],5
same,"Cupgrass, Woolly plant response rating",[8]; [24],50
same,"Plant response rating, Flood, Barnyardgrass",[9]; [25],0
same,"Plant response rating, Barnyardgrass",[9]; [26],0
same,"Plant response rating, Barnyardgrass",[9]; [27],0
same,"Plant response rating, Barnyardgrass",[9]; [28],0
same,"Plant response rating, Flood, Ducksalad",[10]; [25],40
same,"Plant response rating, Ducksalad",[10]; [26],0
same,"Plant response rating, Ducksalad",[10]; [27],20
same,"Plant response rating, Ducksalad",[10]; [28],30
same,"Plant response rating, Flood, Rice",[11]; [25],0
same,"Plant response rating, Rice",[11]; [26],0
same,"Plant response rating, Rice",[11]; [27],0
same,"Plant response rating, Rice",[11]; [28],0
same,"Plant response rating, Flood, Sedge, Umbrella",[12]; [25],40
same,"Plant response rating, Sedge, Umbrella",[12]; [26],0
same,"Plant response rating, Sedge, Umbrella",[12]; [27],0
same,"Plant response rating, Sedge, Umbrella",[12]; [28],0
